The subject of the assay is HIV-1 infected primary macrophages. Description: RT-qPCR of EV-associated viral RNA from HIV-1 infected primary macrophages. Conditions: 1, 5, 10 uM. The class given is cell-based. The protocol: FIGS. 11A-11B are graphs showing CBD lowers viral RNAs in EVs released from HIV-1 infected primary macrophages. Primary PBMCs were purchased (Precision For Medicine, Frederick, Md.) and cultured in vitro first with PMA/GM-CSF for 3 days to obtain macrophages, and were then infected with HIV-1 89.6 strain (MOI.1.0) for 12 days. The macrophages were treated with PMA and GM-CSF during the infection period (added every 3 days into the fresh media). On day 12, all cells were treated with cART (4 antivirals) and kept in culture for another 3 days. On day 15, media was removed and CBD was added for 5 days (1, 5, 10 μM; at 0 and 48 hours). Supernatants were then isolated and exosomes were enriched using NT80/82 beads overnight at 4° C. […]
To examine whether the same trend could be observed in a primary cell model, three independent HIV-1 infected primary macrophage cell cultures were treated with a titration of CBD (1, 5, and 10 uM). EVs were enriched from the extracellular supernatant using NT80/82 beads and analyzed for HIV-1 TAR and env (FIG. 11). […] To apply these findings to in vivo HIV-1 infection, total EVs were enriched from plasma samples from 15 individuals; 5 healthy donors, 5 HIV-1 positive donors, and 5 HIV-1 positive donors who used Cannabis, were trapped using NT80/82 particles and analyzed via Western blot for the presence of HIV-1 Nef protein.
For orientation: Quantitative PCR measures a nucleic acid by following its amplification.

Structures are written as SMILES.

Consider `C=C(C)[C@@H]1CCC(C)=C[C@H]1c1c(O)cc(CCCCC)cc1O` [CBD, 2-[1R-3-methyl-6R-(1-methylethenyl)-2-cyclohexen-1-yl]-5-pentyl-1,3-benzenediol], for which the “TAR RNA within EVs” value (three primary macrophage cultures, FIG. 11A) is listed as “statistically significant decrease”. In addition, the “env RNA in secreted EVs” value (two out of three infected primary macrophages, FIG. 11B) was “statistically significant decreasing trend”.
